A short description of data set [1]: Cytotoxicity against L929 cells, MTT cell viability assay (ISO 10993-5:2009(E)). Format: cell-based. Particulars: mouse, L929 mouse fibroblast cells; for viability at 24 h, 5 µg/mL / viability at 24 h, 25 µg/mL / viability at 24 h, 50 µg/mL / viability at 24 h, 125 µg/mL / viability at 24 h, 250 µg/mL / viability at 24 h, 500 µg/mL / viability at 24 h, 1000 µg/mL: read-out: viability of L929 cells (% of viable cells); for CC50 at 24 h: 50% cell proliferation inhibition, L929 cells. The text has this:
Since T. gondii is an obligate intracellular parasite that requires invasion of mammalian host cells to proliferate, compounds that inhibit parasite growth might be toxic to host cells as well. Therefore, as an initial indicator for host cell toxicity, we firstly evaluated compounds 5–16 for their ability to inhibit the growth of mouse fibroblast (L929) cells line according to the international standards: ISO 10993-5:2009(E).
To calculate the reduction of viability compared to the untreated blank the equation was used: viability (%) = 100% × sample OD570 (the mean value of the measured optical density of the treated cells)/blank OD570 (the mean value of the measured optical density of the untreated cells). CC50—represents the concentration of tested compounds that was required for a 50% cell proliferation inhibition in vitro. The effect of the tested compounds on the cell lines was measured using MTT assay according to the international standard: ISO 10993-5:2009(E). CC50 values were determined based on the plotted curves using GraphPad Prism program (version 8.0.1).
Cell culture: the L929 mouse fibroblast (ATTC® CCL-1™) was routinely cultured in IMDM (Iscove’s Modified Dulbecco Medium, Biowest, Nuaille, France), supplemented with 10% HIFBS, 100 U/mL penicillin and 100 μg/mL streptomycin. Cells were trypsinized twice a week and seeded at a density of 1 × 10^6 per T25 cell culture flask and incubated for 24–48 h in a 37 °C and 10% CO2 to achieve a confluent monolayer.
Cell viability assay: Assays were performed according to international standards: ISO 10993-5:2009(E), Biological evaluation of medical devices, Part 5: Tests for in vitro cytotoxicity. Cell viability were evaluated using the tetrazolium salt [3-(4,5-dimethylthiazol-2-yl)-2,5-diphenyltetrazolium bromide] (Sigma) and mouse fibroblasts L929 cells. For this assay we used only the culture medium, RPMI 1640, without phenol red (Biowest) supplemented with 10% HIFBS, 2 mM L-glutamine (Sigma), 100 U/mL penicillin, 100 μg/mL streptomycin. Shortly after, a 1 × 10^4/well of L929 cells were placed into 96-well plates and incubated in 37 °C and 10% CO2. Afterwards, an old culture medium was replaced by 100 μL of compounds and drugs dilutions in culture medium and the cells were treated for 24 h. Moreover, cells were treated with a 4.0–0.03% concentration of DMSO and 1M NaOH as a compound and drugs solvent (data not shown). Then, 50 μL of 1 mg/mL of MTT solution in RPMI 1640 without phenol red was added to each well and incubated 2h (37 °C, 10% CO2). Next, cell culture medium was aspirated cautiously and 150 μL of DMSO was added to each well, the plates were gently mixed. Then 25 μL 0.1M glycine buffer (pH = 10.5) (Sigma) was added. The optical density at 570 nm on the ELISA reader (Multiskan EX, Labsystems, Vienna, VA, USA), was read. The results were expressed as a percentage of viability compared to untreated cells. All experiments were performed in triplicate. For comparison reasons, two compounds known from our previous studies (6 and 9) were included in the bioassay performed for compounds 5, 7, 8, 9–16.
A general note: Tetrazolium assays rely on reduction of a dye to a coloured formazan, in cell work by metabolically active cells.

For data set [2], the system named is Toxoplasma gondii RH strain tachyzoites (ATCC PRA 310). In words: Influence on T. gondii proliferation in Hs27 cells, [3H]-uracil incorporation assay. As to conditions: for IC50: Toxoplasma gondii, HS27, 50% inhibition of T. gondii RH proliferation in vitro, Hs27 host cells, [3H]-uracil incorporation; for SR (selectivity ratio): ratio of CC50 (L929) to IC50 (T. gondii). Type of data set: cell-based.

A short description of data set [3]: Lipophilicity by HPLC (logkw extrapolation, OECD guideline). Format: physicochemical. As to conditions: Phenomenex Synergi 4 µm Polar-RP column, methanol:water, calibration with seven standards. The procedure:
HPLC experiments were performed using a chromatograph equipped with an Elite LaChrom L-2130 gradient pump, L-2455 DAD detector, L-2300 column oven, and L-2200 autosampler (Hitachi-Merck, Darmstadt, Germany). The tested samples were applied into the Phenomenex Synergi 4 µm Polar-RP chromatographic column (Phenomenex, Torrance, CA, USA) (150 mm length, 4.6 mm i.d.). Mobile phases were degassed using a built-in membrane degasser.
Chromatographic analysis: 5 µL of each sample (0.1% methanolic solutions) was applied into the chromatographic column and chromatograms were developed at a flow rate of 1.0 mL min^−1 in the isocratic mode using various concentrations of methanol in the binary polar mobile phase: methanol:water (40:60, 45:55, 50:50, 55:45, 60:40, 65:35, and 70:30 (v/v)) Chromatograms were detected at 254 nm. All experiments were repeated in triplicate, and the final results were their arithmetic mean. Dead time was measured for uracil (Calbiochem—Merck, Darmstadt, Germany). All the experiments were performed at ambient temperature.
The chromatographic lipophilicity parameter (logkw) for 5–16 was obtained by the extrapolation of the retention parameter logk to pure water, according to the equation: logk = logkw − S × φ(1) where logkw is the value of the retention factor of a substance in pure water, S is the slope of the regression curve, and φ is the concentration (v/v) of methanol in the mobile phase.
Subsequently, logPHPLC parameters for 5–16 were calculated according to OECD guidelines, based on the equation obtained for seven standards with known lipohilicity parameters (logPo/w): logPo/w = 1.0239(± 0.03)·logkw − 0.1541(± 0.08); n = 7; r = 0.9976; se = 0.08; F = 1047.8(2)

Data set [4] deals with Toxoplasma gondii tachyzoites. More on the design: method as in PMID 30744161. Particulars: inhibition of T. gondii tachyzoite proliferation, previous study; ref [19]; cited from earlier work.

In brackets after ≈: the same amount, converted by molar mass.

The melting point is the temperature, or range, at which the solid turns liquid. The term viability denotes the share of living cells, or the viability signal relative to a control. As a reminder, the CC50 is the concentration at which the toxic effect on the cells reaches its halfway point. High values mean lower toxicity to the cells, low ones greater toxicity to the cells. The term IC50 denotes the midpoint of a concentration-inhibition curve. A word on the chromatographic logP: it is lipophilicity estimated from chromatographic retention. Consider `Cc1nc[nH]c1C(=O)NNC(=S)Nc1ccccc1Cl` [Compound 8, 4-(2-Chlorophenyl)-1-(4-methylimidazol-5-oyl)thiosemicarbazide], for which the melting point was in the range of 217 to 219 °C. Besides, in data set [1], the viability at 24 h, 5 µg/mL stood at 89.9%; the viability at 24 h, 25 µg/mL came to 86.3%; the viability at 24 h, 50 µg/mL worked out at 78.5%; the viability at 24 h, 125 µg/mL was 69.4%. Further, in data set [1], the viability at 24 h, 250 µg/mL was determined as 64.8%; the viability at 24 h, 500 µg/mL was determined as 57.1%; the viability at 24 h, 1000 µg/mL amounted to 39.5%; the CC50 at 24 h came to 630 µg/mL (≈ 2030 µM). Also, in data set [2], inhibition was half-maximal at 35.6 µg/mL (≈ 115 µM) (IC50) and the “SR (selectivity ratio)” value was 17.69. Moreover, the chromatographic logP in data set [3] was 3.17.
In turn, `Cc1nc[nH]c1C(=O)NNC(=S)Nc1ccccc1Br` [Compound 11, 4-(2-Bromophenyl)-1-(4-methylimidazol-5-oyl)thiosemicarbazide] came in with a melting point of 205 to 207 °C. For the same compound, in data set [1], the viability at 24 h, 5 µg/mL was 94.7%; the viability at 24 h, 25 µg/mL was 93%; the viability at 24 h, 50 µg/mL was 87.5%; the viability at 24 h, 125 µg/mL was 76.3%. Besides, in data set [1], the viability at 24 h, 250 µg/mL is 70%; the viability at 24 h, 500 µg/mL was 47.1%; the viability at 24 h, 1000 µg/mL is 29.8%; the CC50 at 24 h was determined as 495 µg/mL (≈ 1400 µM). Besides, in data set [2], the IC50 was found to be 27.6 µg/mL (≈ 78.1 µM) and the “SR (selectivity ratio)” value amounted to 17.91. The chromatographic logP in data set [3] is 3.23.
In turn, `Cc1nc[nH]c1C(=O)NNC(=S)Nc1cccc(I)c1` [Compound 15, 4-(3-Iodophenyl)-1-(4-methylimidazol-5-oyl)thiosemicarbazide] came in with a melting point of 210 to 212 °C. Also, in data set [1], the viability at 24 h, 5 µg/mL is 96.7%; the viability at 24 h, 25 µg/mL turned out to be 87.3%; the viability at 24 h, 50 µg/mL came to 70.8%; the viability at 24 h, 125 µg/mL was 66.2%. For the same compound, in data set [1], the viability at 24 h, 250 µg/mL turned out to be 54%; the viability at 24 h, 500 µg/mL came to 8.53%; the viability at 24 h, 1000 µg/mL came to 8.49%; the CC50 at 24 h came out at 197 µg/mL (≈ 492 µM). For the same compound, in data set [2], the IC50 turned out to be 10.3 µg/mL (≈ 25.7 µM) and the “SR (selectivity ratio)” value was determined as 19.16. Besides, the chromatographic logP in data set [3] was 3.98.
For the compound `Nc1ccc(S(=O)(=O)Nc2ncccn2)cc1` [sulfadiazine, 4-amino-N-(2-pyrimidinyl)benzenesulfonamide, reference compound], the CC50 at 24 h in data set [1] is > 2500 µg/mL. Besides, in data set [2], the IC50 was > 2500 µg/mL and the “SR (selectivity ratio)” value is recorded as <0.92. Also, the IC50 in data set [4] is on record as ~ 2721.45 µg/mL.
On to `Cc1nc[nH]c1C(=O)NNC(=S)Nc1ccc(I)cc1` [Compound 16, 4-(4-Iodophenyl)-1-(4-methylimidazol-5-oyl)thiosemicarbazide], for which the melting point was in the range of 225 to 227 °C. Also, in data set [1], the viability at 24 h, 5 µg/mL came to 96.7%; the viability at 24 h, 25 µg/mL worked out at 84.4%; the viability at 24 h, 50 µg/mL was determined as 66.2%; the viability at 24 h, 125 µg/mL was 68.1%. Besides, in data set [1], the viability at 24 h, 250 µg/mL was determined as 49.9%; the viability at 24 h, 500 µg/mL was 16.3%; the viability at 24 h, 1000 µg/mL worked out at 13.5%; the CC50 at 24 h was determined as 195 µg/mL (≈ 486 µM). Moreover, in data set [2], it took 22 µg/mL (≈ 54.9 µM) to reach half-maximal inhibition (IC50) and the “SR (selectivity ratio)” value is recorded as 8.86. The chromatographic logP in data set [3] was 3.95.

The values above are taken from publication PMC6514996, “Discovery of Potent and Selective Halogen-Substituted Imidazole-Thiosemicarbazides for Inhibition of Toxoplasma gondii Growth In Vitro via Structure-Based Design” (Molecules, 2019).
